“And” between values parts separate entries of the source, which are not always exact repeats. Equal entries are not always repeated. Structures can show the parent of a compound that is named as a salt.
Columns and labels:
[1] = Kinetics of MMF-release during incubation in intestinal fluid of the minipig; type: in vitro ADME, Göttingen SPF minipig; conditions: for release of the second equivalent of MMF / release kinetics of the first equivalent of MMF: diluted minipig small intestinal fluid pH 6.8, 37° C., compared with DMF (FIG. 1); for release kinetics of the first equivalent of MMF: time 0-30 min
Protocol: Example 7: Investigation and Comparison of the Kinetics of MMF-Release of the Different Compounds of the Present Invention and DMF During Incubation in Intestinal Fluid of the Minipig
Intestinal tissue/fluid and enterocyte samples were taken from a 10 month old, female Göttingen SPF minipig. The body weight was 21 kg. The minipig was fasted for approximately 28 hours before sampling of intestinal fluid/tissues and enterocytes. On the day of sampling, the minipig was weighed and anaesthetised by an intramuscular injection in the neck or in the left hind leg (about 0.3 ml per kg body weight) of a mixture of Zoletil 50 Vet., Virbac, France (125 mg tiletamine and 125 mg zolazepam), Rompun Vet., Bayer, Germany (20 mg xylazine/ml, 6.5 ml), Ketaminol Vet., Veterinaria AG, Switzerland (100 mg ketamine/ml, 1.5 ml) and Methadon DAK, Nycomed Danmark, Denmark (10 mg methadon/ml, 2.5 ml). The animal was killed by exsanguination before sampling of intestinal fluid. An intestinal segment was ligated at both ends before removal. The isolated tissue was placed in isotonic saline and opened by a longitudinal cut for sampling of intestinal fluid.
The intestinal tissue from each segment was transferred into a Centrifuge Tube, immersed in 10 ml 50 mM phosphate buffer, pH 6.8 and frozen at −70° C.
• Instrument: Acquity UPLC system coupled with a TQ detector (triple quadruple mass spectrometer) UPLC Method: Column: Phenomenex Kinetex C18, 100 A, 2.6 μm (150×4.6 mm) flow: 0.4 ml/min split: appr. 100 μl/min to MS Temperature: 30° C. solvent system (isocratic): • Solvent A 25% water with 0.1% acetic acid • Solvent B 75% methanol with 0.1% acetic acid stoptime: 6 min autosampler temperature: 8° C. injection volume: 4 μl retention time: MN/IF: 4.3 min • MEF: 4.7 min Mass Spectrometry software: Masslynx 4.1 detection mode: electrospray/negative ions (ESP−) capillary voltage: 2.3 kV source temperature: 100° C. desolvation temperature: 450° C. cone voltage: 18 V desolvation gas: N2 650 L/h cone gas: N2, 20 L/h collision gas: argon, appr. 3.3*10^−3 mbar collision energy: 11 eV MRM [m/z]: 128.94>85.03 Monomethylfumarate dwell: 200 msec • 142.99>99.06 Monoethylfumarate (ISTD) dwell: 200 msec 7.2.1.2 Stock and Calibration Solutions
Stock (SS), working (WS) and calibration solutions of the analyte monomethyl fumarate (MMF) and the internal standard (ISTD) […] (MEF) were prepared as described below. • SSMMF: In a 10 ml volumetric flask, 6.5 mg MMF (Batch: MKRJ0642V/Aldrich) were dissolved in methanol and made up to volume (c=650 μg/ml) • SSISTD: In a 100 ml volumetric flask, 10 mg MEF (Batch: STBC5219V/Aldrich) were dissolved in methanol and made up to volume (c=100 μg/ml) • WSISTD: 100 μl SSISTD were transferred into a 10 ml volumetric flask and made up to volume with acetonitrile (c=1,000 ng/ml);
Calibration solutions were prepared by serial dilution of SSMMF; diluted small intestinal fluid (diluted by 1/20 v/v with 50 mM KH2PO4, pH 6.8; (dil IF) was used as matrix. The dilution scheme is given below:
50 μl sample (calibration solution or sample of an incubation experiment with MMF prodrugs) was mixed with 50 μl WSISTD, 20 μl formic acid and 100 μl acetonitrile. This mixture was vortexed for 15 sec and centrifuged (13,000 rpm, 3 min). Thereafter, 4 μl of the supernatant were subjected to LC-MS analysis.
Stock solutions were prepared in DMSO or, for one compound, in DMSO with 10% (v/v) water. Concentrations in stock solutions were […] for compounds with one, two and three molar MMF equivalents.
In a HPLC glass vial, 8 μl of stock solution were mixed with 792 μl dil IF and the mixture was stirred (250 rpm) in a water bath (T=37° C.).
Immediately after mixing as well as at t=15 min, 30 min, 60 min, 90 min and 120 min, 50 μl were withdrawn and prepared for LC-MS analysis as described in chapter. 2.1.3. […]

Caco-2 monolayers = experiment: in vitro
Protocol: (§1) The membrane permeability was investigated in Caco-2 monolayers. DMF was investigated in a separate experiment for comparison.
(§2) Based on the assumption that in vivo, the intact molecules will be pre-systemically metabolized, the permeability test was performed only in the apical→basolateral direction. The test concentration in the apical medium was 250 μM. […] Sampling time points were 15, 45 and 90 min.

[2] = tested on: MOG35-55-induced experimental autoimmune encephalomyelitis (EAE); experiment: MOG35-55-induced experimental autoimmune encephalomyelitis (EAE) in C57BL/6 mice; type: in vivo; conditions: for body weight: prophylactic oral treatment from day 1, observation day 1-13 (FIG. 2); for development of clinical symptoms (clinical score): prophylactic oral treatment from day 1, observation day 1-13, 11.54 mM dose formulation, 10 ml/kg (FIG. 3)
From the text: Assessment and comparison of the efficacy of compounds of the invention and DMF (reference) in MOG35-55-induced experimental autoimmune encephalomyelitis (EAE) in C57BL/6 mice: • Test system: male C57BL/6 mice, 12 weeks old; 10 animals per treatment group; • Induction of EAE: Day −1—subcutaneous injection of MOG35-55, suspended in complete Freund's adjuvans and intraperitoneal injection of pertussis toxin. • Day 3—intraperitoneal injection of pertussis toxin. • Treatment: Dimethylfumarate and test substances or vehicle only were administered via oral route. Test substances were dissolved or suspended in 0.5% hydroxyethylcellulose (dissolved in 50 mM potassium dihydrogenphosphate, pH 5.0). Drug concentration in dose formulations: 11.54 mM; • Dose volume: 10 ml/kg body weight; • Start of treatment: Day 1 • Observations (clinical Observations were recorded daily between day 1 and 13. score and body weight): • Clinical score: grade 0-10; 0 (=no impairments), 1 (normal movement; limp tail: proximal ⅔ of the tail is limp and droopy), 2 (normal movement; whole tail is limp; 3 (wobbly walk; absent righting reflex), 4 (gait ataxia), 5 (mild paraparesis), 6 (moderate paraparesis), 7 (severe paraparesis or paraplegia), 8 (tetraparesis), 9 (moribund), 10 (death).

[3] = In vivo pharmacokinetics of MMF after oral administration in NMRI mice; conditions: female, mouse, 65.3 mg/kg
Protocol: The pharmacokinetics of MMF after administration of the compound of Example 1 and DMF for comparison was investigated in female NMRI mice (3 animals per group). The test compound was dissolved in DMSO/PEG300 (20/80) and administered p.o. (gavage) at a dose volume of 10 ml/kg. DMF was given at a dose of 45 mg/kg. The test compound was dosed at a MMF-equivalent dose, i.e. 65.3 mg/kg. Blood samples were taken at 0.25, 0.5, 1.0, 2.0, 4.0, 6.0 and 8.0 h after drug administration.
Pharmacokinetic parameters, derived by non-compartmental analysis for test compound (Example 1): […]

in vitro = conditions: human, Caco-2
Protocol: as §1, §2

Row | Structure (SMILES) | permeability category compared to the reference molecules (Caco-2 monolayers; Caco-2) | body weight [2] | development of clinical symptoms (clinical score) [2] | release of the second equivalent of MMF [1] | release kinetics of the first equivalent of MMF [1] | other results
1 | COC(=O)/C=C/C(=O)OC(C)OC(=O)/C=C/C(=O)OC [(E)-But-2-enedioic acid 1-((E)-3-methoxycarbonyl-acryloyloxy)-ethyl ester methyl ester, reference compound] |  |  |  |  |  | release kinetics of MMF ([1]; incubation in intestinal fluid of the minipig, compared with DMF (FIG. 8)): considerable faster than that of DMF
2 | COC(=O)/C=C/C(=O)OC [DMF, Dimethyl fumarate] | moderate permeability | remained stable | protected from the development of clinical symptoms |  |  | Recovery [%] mean ± s.d. (Caco-2 monolayers; Caco-2): 11.6 ± 1.0%; Papp × 10^−6 [cm/sec] mean ± s.d. (Caco-2 monolayers; human, Caco-2, 250 μM): 1.8 ± 0.2 10^−6 cm/sec
3 | COC(=O)/C=C/C(=O)OCCOCCOCCOCCOC(=O)/C=C/C(=O)OC [Example 1, (E)-But-2-enedioic acid 2-(2-{2-[2-((E)-3-methoxycarbonyl-acryloyl-oxy)-ethoxy]-ethoxy}-ethoxy)-ethyl ester methyl ester] | moderate permeability | remained stable | protected from the development of clinical symptoms | released more slowly | essentially identical to that of DMF | AUC(0-inf) [3]: 5990 ng·h/mL; Papp A→B at 250 μM (in vitro): 1 ± 0.1 ×10⁻⁶ cm/s; recovery at 90 min, 250 µM (in vitro): 17.1%
4 | COC(=O)/C=C/C(=O)OCCOCCOCCOC(=O)/C=C/C(=O)OC [Example 2, (E)-But-2-enedioic acid 2-{2-[2-((E)-3-methoxycarbonyl-acryloyl-oxy)-ethoxy]-ethoxy}-ethyl ester methyl ester] |  |  |  | released more slowly | essentially identical to that of DMF | 
5 | COC(=O)/C=C/C(=O)OCCOCCOC(=O)/C=C/C(=O)OC [Example 3, (E)-But-2-enedioic acid 2-[2-((E)-3-methoxycarbonyl-acryloyloxy)-ethoxy]-ethyl ester methyl ester] |  |  |  | released more slowly | essentially identical to that of DMF | 
6 | C[C@]12CC[C@H]3[C@@H](CCC4=CC(=O)CC[C@@]43C)[C@@H]1CC[C@@H]2O [Testosterone, testosterone] |  |  |  |  |  | Recovery [%] mean ± s.d. (Caco-2 monolayers; direction a-b): 67.3 ± 1.2% and 62.5 ± 2.1%; Recovery [%] mean ± s.d. (Caco-2 monolayers; direction b-a): 94.9 ± 0.9% and 76.1 ± 4.5%

From patent US9969674B2, “MMF-derivatives of ethyleneglycols” (RATIOPHARM GMBH, priority 2014, dated 2018)
